Experimental data from the CheMixHub viscosity set.
Several values for one entry are separate records, joined by “and”; a condition that tells them apart may be missing. Equal entries are not always repeated. ± gives the uncertainty stated by the source.

How the values were obtained:
[1] = xn = mol fraction of the nth substance listed; details: 101 kPa

CC1(C)OC1C#N (centres undefined)
101 kPa
Details | viscosity [mPa·s]
293.15 K | 1.337 ± 0.035
298.15 K | 1.223 ± 0.032
303.15 K | 1.1 ± 0.029
313.15 K | 0.938 ± 0.025
323.15 K | 0.79 ± 0.021

CCCC(C)CO (centres undefined)
Details | viscosity
298.15 K, 101.33 kPa | 5.304 ± 0.049 mPa·s and 5.304 ± 0.043 mPa·s

CCCCC(CC)COC(C)=O (centres undefined)
101.33 kPa
Details | viscosity [mPa·s]
293.15 K | 1.471 ± 0.2
303.15 K | 1.234 ± 0.18
313.15 K | 1.051 ± 0.16
323.15 K | 0.906 ± 0.15

CCCCCCCCCCBr
101 kPa
Details | viscosity [mPa·s]
297.75 K | 2.35 ± 0.051
303.95 K | 2.08 ± 0.045
313.55 K | 1.75 ± 0.038

CCCCCCCCCCCC(=O)OCC
viscosity
Details | 293.15 K | 303.15 K | 308.15 K | 313.15 K | 323.15 K
100 kPa | 3.374 ± 0.074 mPa·s | – | 2.43 ± 0.053 mPa·s | 2.203 ± 0.048 mPa·s | 1.827 ± 0.04 mPa·s
101.33 kPa | 3.374 ± 0.14 mPa·s | 2.695 ± 0.031 mPa·s | 2.43 ± 0.1 mPa·s | 2.203 ± 0.09 mPa·s and 2.045 ± 0.024 mPa·s | 1.827 ± 0.075 mPa·s

CCCCCCCCCCN
Details | viscosity [mPa·s]
303.15 K, 101 kPa | 1.766 ± 0.019

CCCCCCCC[P+](CC)(CC)CC.Cc1nc([N+](=O)[O-])c[n-]1
100 kPa
Details | viscosity [mPa·s]
293.15 K | 920 ± 57
298.15 K | 623 ± 33
303.15 K | 435 ± 20
308.15 K | 313 ± 12
313.15 K | 231 ± 8
318.15 K | 174 ± 5
323.15 K | 135 ± 3

CCCC[NH3+].O=[N+]([O-])[O-]
Details | viscosity [mPa·s]
298 K, 101 kPa | 108.5 ± 4.4

CCCN(CCC)CCC
101 kPa
Details | viscosity [mPa·s]
293.15 K | 0.67 ± 0.009
298.15 K | 0.523 ± 0.006
303.15 K | 0.495 ± 0.005
308.15 K | 0.46 ± 0.01
313.15 K | 0.45 ± 0.01
318.15 K | 0.412 ± 0.004
323.15 K | 0.38 ± 0.004

CCN(CC)c1ccccc1
viscosity
Details | 298 K | 298.15 K | 303.15 K | 308 K | 308.15 K | 313 K | 313.15 K | 318.15 K | 323.15 K
101 kPa | 1.919 ± 0.049 mPa·s | 1.93 ± 0.12 mPa·s and 1.77 ± 0.05 mPa·s and 1.93 ± 0.051 mPa·s | 1.72 ± 0.04 mPa·s and 1.525 ± 0.04 mPa·s | 1.534 ± 0.04 mPa·s | 1.55 ± 0.03 mPa·s | – | 1.35 ± 0.04 mPa·s | 1.274 ± 0.034 mPa·s | 1.15 ± 0.08 mPa·s and 1.07 ± 0.03 mPa·s
101.3 kPa | 1.933 ± 0.051 mPa·s | – | – | 1.547 ± 0.041 mPa·s | – | 1.41 ± 0.038 mPa·s | – | – | –

CCOC(=O)CC(=O)OCC
101 kPa
Details | viscosity [mPa·s]
303.15 K | 1.728 ± 0.037
308.15 K | 1.57 ± 0.034
313.15 K | 1.456 ± 0.031

ClCCCCl
Details | viscosity [mPa·s]
298.15 K, 101 kPa | 0.9443 ± 0.008

Clc1ccc(Cl)c(Cl)c1
viscosity [mPa·s]
Details | 303.15 K | 313.15 K | 318.15 K
100 kPa | – | 1.472 ± 0.012 | 1.329 ± 0.012
101 kPa | 1.785 ± 0.011 | 1.472 ± 0.031 | 1.329 ± 0.028

FC(F)(Cl)C(F)(F)Cl
101 kPa
Details | viscosity [mPa·s]
293.35 K | 0.3524 ± 0.0096
313.05 K | 0.2877 ± 0.0078

CCN(CC)c1ccccc1 + O=S1(=O)CCCC1
viscosity [mPa·s], [1]
Details | x1 = 0.0999 | x1 = 0.2008 | x1 = 0.2993 | x1 = 0.4001 | x1 = 0.5001 | x1 = 0.6027 | x1 = 0.7023 | x1 = 0.7999 | x1 = 0.8991
303.15 K | 8.19 ± 0.17 | 6.62 ± 0.14 | 5.41 ± 0.11 | 4.44 ± 0.09 | 3.7 ± 0.08 | 3.09 ± 0.07 | 2.63 ± 0.06 | 2.26 ± 0.05 | 1.96 ± 0.04
308.15 K | 7.26 ± 0.15 | 5.88 ± 0.12 | 4.81 ± 0.1 | 3.96 ± 0.08 | 3.3 ± 0.07 | 2.77 ± 0.06 | 2.36 ± 0.05 | 2.04 ± 0.04 | 1.77 ± 0.04
313.15 K | 6.45 ± 0.14 | 5.25 ± 0.11 | 4.31 ± 0.09 | 3.54 ± 0.08 | 2.96 ± 0.06 | 2.49 ± 0.05 | 2.13 ± 0.05 | 1.84 ± 0.04 | 1.6 ± 0.03

CC[N+](CC)(CC)CC.O=C([O-])CCCC(=O)O + O=S1(=O)CCCC1
[1], x1 = 0.23
Details | viscosity [mPa·s]
303.15 K | 150.1
313.15 K | 90
323.15 K | 58.9

CCN(CC)c1ccccc1 + Oc1ccccc1
viscosity [mPa·s], [1]
Details | 298.15 K | 313.15 K | 323.15 K
x1 = 0.0654 | 8.65 ± 0.23 | 4.49 ± 0.13 | 3.1 ± 0.08
x1 = 0.1184 | 8.76 ± 0.23 | 4.49 ± 0.13 | 3.13 ± 0.08
x1 = 0.139 | 8.47 ± 0.23 | 4.35 ± 0.12 | 3 ± 0.08
x1 = 0.1758 | 8.2 ± 0.22 | 4.17 ± 0.12 | 2.87 ± 0.08
x1 = 0.2126 | 7.75 ± 0.21 | 3.95 ± 0.11 | 2.77 ± 0.07
x1 = 0.2997 | 6.44 ± 0.17 | 3.49 ± 0.1 | 2.48 ± 0.07
x1 = 0.3868 | 5.27 ± 0.14 | 3 ± 0.08 | 2.17 ± 0.06
x1 = 0.5 | 4.11 ± 0.11 | 2.51 ± 0.07 | 1.93 ± 0.05
x1 = 0.5955 | 3.27 ± 0.09 | 2.13 ± 0.06 | 1.65 ± 0.04
x1 = 0.6559 | 2.86 ± 0.08 | 1.95 ± 0.05 | 1.52 ± 0.04
x1 = 0.7162 | 2.63 ± 0.07 | 1.8 ± 0.05 | 1.37 ± 0.04
x1 = 0.8502 | 2.17 ± 0.06 | 1.48 ± 0.04 | 1.22 ± 0.03

CCCCCCCCCCN + c1ccccc1
[1], 303.15 K
Details | viscosity [mPa·s]
x2 = 0.2011 | 1.464 ± 0.016
x2 = 0.3988 | 1.174 ± 0.013
x2 = 0.4963 | 1.043 ± 0.011
x2 = 0.5993 | 0.923 ± 0.01
x2 = 0.7973 | 0.7207 ± 0.008

CCCN(CCC)CCC + c1ccccc1
viscosity [mPa·s], [1]
Details | x1 = 0.01039 | x1 = 0.02061 | x1 = 0.03067 | x1 = 0.04025 | x1 = 0.04975 | x1 = 0.05958 | x1 = 0.06933 | x1 = 0.07883 | x1 = 0.08893
303.15 K | 0.5599 ± 0.0043 | 0.5574 ± 0.0043 | 0.5552 ± 0.0043 | 0.5532 ± 0.0043 | 0.5515 ± 0.0043 | 0.5487 ± 0.0043 | 0.5467 ± 0.0042 | 0.5453 ± 0.0043 | 0.5429 ± 0.0042
313.15 K | 0.4902 ± 0.0039 | 0.4877 ± 0.0039 | 0.4859 ± 0.0039 | 0.4836 ± 0.0039 | 0.4818 ± 0.0039 | 0.4793 ± 0.0039 | 0.4772 ± 0.0039 | 0.476 ± 0.0039 | 0.4738 ± 0.0039
